Experimental findings from ChEMBL document CHEMBL1144376, “Novel approach to pro-drugs of lactones: water soluble imidate and ortho-ester derivatives of a furanone-based COX-2 selective inhibitor” (Bioorg Med Chem Lett, 2005) are described below.

A short description of series [1]: Plasma level of compound 2 measured at 30 min in sprague-dawley rat after 2 mg/kg intravenous administration of compound. It is filed as ADME, organism-based. Also on record: dose 2 mg/kg, route intravenous. Particulars: in vivo, 0.5 h, read-out: Plasma level.
Series [2] is described as follows: Plasma level measured at 30 min in sprague-dawley rat upon intravenous administration. It is filed as ADME. As to conditions: read-out: Plasma level.
Series [3] concerns the target Prostaglandin G/H synthase 1 (Homo sapiens, UniProt P23219). Briefly: Inhibitory concentration against prostaglandin G/H synthase 1 of human whole blood.
A short description of series [4]: Plasma level measured at 30 min in sprague-dawley rat upon intravenous administration [dosed in PEG-400 solution]. It is filed as ADME, organism-based. Particulars: read-out: Plasma level.

pIC50: −log10 of the molar value. Some results are limits rather than exact numbers.

Chain of Prostaglandin G/H synthase 1 (P23219 whole entry): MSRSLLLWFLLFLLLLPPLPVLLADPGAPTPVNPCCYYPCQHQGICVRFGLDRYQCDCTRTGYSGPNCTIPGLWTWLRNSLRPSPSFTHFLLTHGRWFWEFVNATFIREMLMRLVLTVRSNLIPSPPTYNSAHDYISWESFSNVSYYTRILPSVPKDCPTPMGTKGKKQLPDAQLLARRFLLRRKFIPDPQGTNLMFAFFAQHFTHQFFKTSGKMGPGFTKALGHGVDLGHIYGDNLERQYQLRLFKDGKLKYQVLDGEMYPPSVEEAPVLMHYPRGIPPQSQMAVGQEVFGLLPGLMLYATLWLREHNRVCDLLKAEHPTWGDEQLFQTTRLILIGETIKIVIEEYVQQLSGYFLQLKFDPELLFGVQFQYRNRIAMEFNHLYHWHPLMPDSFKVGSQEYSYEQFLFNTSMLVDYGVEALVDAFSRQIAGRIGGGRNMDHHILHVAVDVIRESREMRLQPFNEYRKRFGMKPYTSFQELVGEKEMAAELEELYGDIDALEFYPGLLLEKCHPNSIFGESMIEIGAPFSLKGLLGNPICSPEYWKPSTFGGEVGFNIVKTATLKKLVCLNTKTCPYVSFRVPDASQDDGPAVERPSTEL

For `CC[C@]1(C)OC2(OCC(COP(=O)([O-])OCC[N+](C)(C)C)O2)C(OC(C)C)=C1c1ccc(S(C)(=O)=O)cc1` (stereo partly specified), in series [1], the concentration was found to be 200 nM. Besides, the concentration at 0.5 h in series [2] is 200 nM.
As to `CC[C@]1(C)OC(=O)C(OC(C)C)=C1c1ccc(S(C)(=O)=O)cc1`, the pIC50 (as a rule, the negative decadic logarithm of the IC50, by convention in mol/L) in series [3] is below 4.07.
In the case of `CC[C@]1(C)OC2(OCC(COC(=O)CCC(=O)[O-])O2)C(OC(C)C)=C1c1ccc(S(C)(=O)=O)cc1.[Na+]` (stereo partly specified), the concentration in series [1] came out at 400 nM. Besides, in series [2], the concentration at 0.5 h was below 100 nM.
`CC[C@]1(C)O/C(=N\[C@@H](CO)C(=O)O)C(OC(C)C)=C1c1ccc(S(C)(=O)=O)cc1`: the concentration in series [1] was below 100 nM.
In series [3], `CC1(O)OC(=O)C(c2ccc(Cl)cc2)=C1c1ccc(S(C)(=O)=O)cc1` (stereo unspecified) showed a pIC50 below 4.07.
On to `CC[C@]1(C)OC2(OCC(C3OC(=O)C(O)=C3O)O2)C(OC(C)C)=C1c1ccc(S(C)(=O)=O)cc1` (stereo partly specified), for which, in series [1], the concentration is 100 nM.
As for `CC[C@]1(C)OC2(OCC(CO)O2)C(OC(C)C)=C1c1ccc(S(C)(=O)=O)cc1` (stereo partly specified), the concentration at 0.5 h in series [4] is 1400 nM. The concentration in series [1] worked out at 2800 nM.
Take `CC[C@]1(C)O/C(=N\OCC(=O)O)C(OC(C)C)=C1c1ccc(S(C)(=O)=O)cc1`: the concentration in series [1] is below 100 nM.
